Data from article PMC7290285 (Viruses, 2020).

Tested on: ecotropic pseudo-typed lentiviral particles (luciferase) in PM1-mCat1 cells
Assay: Luciferase-based viral integration assay using PM1-mCat1 cells
Details: Human immunodeficiency virus 1, read-out: IC50 (in µM), viral integration assay

| SMILES | IC50 [µM] |
| --- | --- |
| O=C(CSc1nnc(-c2cccc(Cl)c2)n1-c1ccccc1C(F)(F)F)NCc1ccco1 [T5258076, FC(F)(F)C1=C(C=CC=C1)N1C(SCC(=O)NCC2=CC=CO2)=NN=C1C1=CC(Cl)=CC=C1] | 4.76 |
| CN(C1CCCCC1)S(=O)(=O)c1cccc(C#N)c1 [T5339669, CN(C1CCCCC1)S(=O)(=O)C1=CC(=CC=C1)C#N] | 5.2 |
| O=C(COc1ccccc1-c1ccccc1)NCC1CCCCC1 [T5339957, O=C(COC1=C(C=CC=C1)C1=CC=CC=C1)NCC1CCCCC1] | 6.88 |
| O=C(CSc1nc2ccccc2c(=O)n1Cc1ccco1)N1CCN(c2ccccc2)CC1 [T5344625, O=C(CSC1=NC2=C(C=CC=C2)C(=O)N1CC1=CC=CO1)N1CCN(CC1)C1=CC=CC=C1] | 1.72 |
| CC(C)CCn1cnc2c1c(=O)n(CC(=O)NC1CC1)c(=O)n2Cc1ccccc1 [T5351795, CC(C)CCN1C=NC2=C1C(=O)N(CC(=O)NC1CC1)C(=O)N2CC1=CC=CC=C1] | 4.64 |
| Clc1cccc(Nc2nc(CN3CCOCC3)nc3scc(-c4ccccc4)c23)c1 [T5363639, ClC1=CC(NC2=C3C(SC=C3C3=CC=CC=C3)=NC(CN3CCOCC3)=N2)=CC=C1] | 2 |
| COc1ccc(S(=O)(=O)N(Cc2cccc(C(F)(F)F)c2)c2ccccc2OC)cc1 [T5407044, COC1=CC=C(C=C1)S(=O)(=O)N(CC1=CC(=CC=C1)C(F)(F)F)C1=C(OC)C=CC=C1] | 4.11 |
| O=S(=O)(c1ccc(Oc2ncnc3scc(-c4ccc(F)cc4)c23)cc1)N1CCOCC1 [T5413794, FC1=CC=C(C=C1)C1=CSC2=C1C(OC1=CC=C(C=C1)S(=O)(=O)N1CCOCC1)=NC=N2] | 6.91 |
| N#Cc1ccccc1S(=O)(=O)N1CCN(Cc2ccc(-c3ccccc3)cc2)CC1 [T5432718, O=S(=O)(N1CCN(CC2=CC=C(C=C2)C2=CC=CC=C2)CC1)C1=C(C=CC=C1)C#N] | 6.33 |
| COc1ccc(N(Cc2ccccc2)S(=O)(=O)c2cccc(C(=O)NCc3ccncc3)c2)cc1 [T5435331, COC1=CC=C(C=C1)N(CC1=CC=CC=C1)S(=O)(=O)C1=CC(=CC=C1)C(=O)NCC1=CC=NC=C1] | 3.14 |
| CC(C)CCn1cnc2c1c(=O)n(CC(=O)NC(C)C)c(=O)n2Cc1ccccc1 [T5488769, CC(C)CCN1C=NC2=C1C(=O)N(CC(=O)NC(C)C)C(=O)N2CC1=CC=CC=C1] | 9.06 |
| Cc1ccc(F)c(NC(=O)c2ccc(OC(F)F)cc2)c1 [T5506295, CC1=CC(NC(=O)C2=CC=C(OC(F)F)C=C2)=C(F)C=C1] | 1.77 |
| Cc1ccc(S(=O)(=O)N2CCOCC2)cc1C(=O)Nc1ccccc1N1CCCC1 [T5530682, CC1=C(C=C(C=C1)S(=O)(=O)N1CCOCC1)C(=O)NC1=C(C=CC=C1)N1CCCC1] | 8.26 |
| c1csc(-c2csc3nc(CN4CCOCC4)nc(N4CCCC4)c23)c1 [T5587925, C(N1CCOCC1)C1=NC2=C(C(=CS2)C2=CC=CS2)C(=N1)N1CCCC1] | 3.97 |
| Cc1ccc(-n2nnnc2Sc2nnnn2-c2ccccc2)c(C)c1 [T5595439, CC1=CC(C)=C(C=C1)N1N=NN=C1SC1=NN=NN1C1=CC=CC=C1] | 2.98 |
| c1ccc(CNc2nc(CN3CCOCC3)nc3scc(-c4cccs4)c23)cc1 [T5605915, C(NC1=C2C(SC=C2C2=CC=CS2)=NC(CN2CCOCC2)=N1)C1=CC=CC=C1] | 4.67 |
| O=C(Nc1ccc2c(c1)OCCCO2)c1cccc(N2CCCC2=O)c1 [T5609721, O=C(NC1=CC2=C(OCCCO2)C=C1)C1=CC(=CC=C1)N1CCCC1=O] | 4.12 |
| Cc1cccn2c(=O)cc(CN3CC(C(=O)N4CCCCC4)Oc4ccccc43)nc12 (stereo not drawn) [T5615894, CC1=CC=CN2C(=O)C=C(CN3CC(OC4=C3C=CC=C4)C(=O)N3CCCCC3)N=C12] | 2.93 |
| CCNC1=NN=C(c2cc(C)n(C3CC3)c2C)CS1 [T5633521, CCNC1=NN=C(CS1)C1=C(C)N(C2CC2)C(C)=C1] | 1.05 |
| O=S(=O)(c1ccc(Sc2ncnc3scc(-c4ccc(F)cc4)c23)nc1)N1CCOCC1 [T5643556, FC1=CC=C(C=C1)C1=CSC2=C1C(SC1=NC=C(C=C1)S(=O)(=O)N1CCOCC1)=NC=N2] | 6.19 |
| COC(=O)c1ccc(C(=O)Nc2ncc(C)s2)cc1 [T5650116, COC(=O)C1=CC=C(C=C1)C(=O)NC1=NC=C(C)S1] | 2.79 |
| CCOc1ncccc1C(=O)OCc1nc(N)c2c(C)c(C)sc2n1 [T5776163, CCOC1=C(C=CC=N1)C(=O)OCC1=NC2=C(C(C)=C(C)S2)C(N)=N1] | 4.7 |
| O=C(COc1ccccc1-c1ccccc1)NCc1ccccc1CN1CCOCC1 [T5781151, O=C(COC1=C(C=CC=C1)C1=CC=CC=C1)NCC1=C(CN2CCOCC2)C=CC=C1] | 6.94 |
| Cc1nc(SCC(=O)NC(C)c2cccs2)c(C#N)c(C)c1C (stereo not drawn) [T5788505, CC(NC(=O)CSC1=C(C#N)C(C)=C(C)C(C)=N1)C1=CC=CS1] | 1.99 |
| Cc1ccccc1-n1nnnc1SCc1nnc(-c2cccs2)o1 [T5805638, CC1=C(C=CC=C1)N1N=NN=C1SCC1=NN=C(O1)C1=CC=CS1] | 1.45 |
| O=C(Nc1ccc2c(c1)OCO2)c1cccc(N2CCCC2=O)c1 [T5821319, O=C(NC1=CC2=C(OCO2)C=C1)C1=CC(=CC=C1)N1CCCC1=O] | 1.58 |

| SMILES | IC50 [µM] |
| --- | --- |
| Cc1cccc(C)c1NC(=O)CN1CCCC1c1nc2ccccc2s1 (stereo not drawn) [T5823772, CC1=CC=CC(C)=C1NC(=O)CN1CCCC1C1=NC2=C(S1)C=CC=C2] | 8.88 |
| CCOc1ccc(C(=O)Nc2cc(C)ccc2F)cc1 [T5869032, CCOC1=CC=C(C=C1)C(=O)NC1=C(F)C=CC(C)=C1] | 1.1 |
| CC1CCN(c2nc(CN3CCOCC3)nc3scc(-c4cccs4)c23)CC1 [T5932815, CC1CCN(CC1)C1=C2C(SC=C2C2=CC=CS2)=NC(CN2CCOCC2)=N1] | 2 |
| O=c1c2ccccc2nc(CN2CCOCC2)n1Cc1nc(-c2ccc(F)cc2)cs1 [T5938605, FC1=CC=C(C=C1)C1=CSC(CN2C(CN3CCOCC3)=NC3=C(C=CC=C3)C2=O)=N1] | 8.71 |
| CCc1ccc(-c2csc(Cn3c(CN4CCOCC4)nc4ccccc4c3=O)n2)cc1 [T5938606, CCC1=CC=C(C=C1)C1=CSC(CN2C(CN3CCOCC3)=NC3=C(C=CC=C3)C2=O)=N1] | 5.91 |
| CC(=O)c1ccc(NC(=O)CNc2ccccc2-c2ccccc2)cc1 [T5941648, CC(=O)C1=CC=C(NC(=O)CNC2=C(C=CC=C2)C2=CC=CC=C2)C=C1] | 7.85 |
| O=C(CNc1ccccc1-c1ccccc1)Nc1ccccc1Cl [T5943324, ClC1=C(NC(=O)CNC2=C(C=CC=C2)C2=CC=CC=C2)C=CC=C1] | 7.79 |
| O=C(COc1ccccc1-c1ccccc1)NCc1ccccc1Cn1cccn1 [T5945790, O=C(COC1=C(C=CC=C1)C1=CC=CC=C1)NCC1=C(CN2C=CC=N2)C=CC=C1] | 6.78 |
| Cc1ccccc1NC(=O)CNc1ccccc1-c1ccccc1 [T5947021, CC1=C(NC(=O)CNC2=C(C=CC=C2)C2=CC=CC=C2)C=CC=C1] | 5.61 |
| c1ccc(-c2csc3nc(CN4CCOCC4)nc(NCCC4CCCO4)c23)cc1 (stereo not drawn) [T5948460, C(CC1CCCO1)NC1=C2C(SC=C2C2=CC=CC=C2)=NC(CN2CCOCC2)=N1] | 2.33 |
| CS(=O)(=O)c1ccc(NC(=O)CNc2ccccc2-c2ccccc2)cc1 [T5950416, CS(=O)(=O)C1=CC=C(NC(=O)CNC2=C(C=CC=C2)C2=CC=CC=C2)C=C1] | 2.08 |
| CC(Nc1nc(CN2CCOCC2)nc2sc3c(c12)CCC3)c1cccc(Cl)c1 (stereo not drawn) [T5952126, CC(NC1=C2C3=C(CCC3)SC2=NC(CN2CCOCC2)=N1)C1=CC(Cl)=CC=C1] | 1.53 |
| N#Cc1ccccc1S(=O)(=O)N1CCC(CCc2ccccc2)CC1 [T5952497, O=S(=O)(N1CCC(CCC2=CC=CC=C2)CC1)C1=C(C=CC=C1)C#N] | 4.27 |
| O=C(CSc1nnc(C2CC2)o1)NC(c1ccccc1)c1cccs1 (stereo not drawn) [T5964141, O=C(CSC1=NN=C(O1)C1CC1)NC(C1=CC=CS1)C1=CC=CC=C1] | 1.26 |
| O=c1[nH]c(CSc2nnc(C3CC3)o2)nc2scc(-c3ccco3)c12 [T5983422, O=C1NC(CSC2=NN=C(O2)C2CC2)=NC2=C1C(=CS2)C1=CC=CO1] | 2.28 |
| CCC(C)c1ccc(S(=O)(=O)Nc2ccc(F)cc2C)cc1 (stereo not drawn) [T5989159, CCC(C)C1=CC=C(C=C1)S(=O)(=O)NC1=C(C)C=C(F)C=C1] | 1.67 |
| Cc1nc(SCC(=O)NCCC(C)C)c(C#N)c(C)c1C [T5989363, CC(C)CCNC(=O)CSC1=C(C#N)C(C)=C(C)C(C)=N1] | 7.91 |
| CC(=O)c1ccccc1NC(=O)CNc1ccccc1-c1ccccc1 [T5989502, CC(=O)C1=C(NC(=O)CNC2=C(C=CC=C2)C2=CC=CC=C2)C=CC=C1] | 1.94 |
| COC(=O)c1ccccc1NS(=O)(=O)c1c(F)cc(F)cc1Br [T6007055, COC(=O)C1=C(NS(=O)(=O)C2=C(Br)C=C(F)C=C2F)C=CC=C1] | 1.35 |
| c1csc(-c2csc3nc(CN4CCOCC4)nc(NN4CCCCC4)c23)c1 [T6026407, C(N1CCOCC1)C1=NC2=C(C(=CS2)C2=CC=CS2)C(NN2CCCCC2)=N1] | 2.73 |
| O=C(Nc1ccccc1O)c1ccccc1Br [T6043692, OC1=C(NC(=O)C2=C(Br)C=CC=C2)C=CC=C1] | 4.11 |
| COc1ccc(CC(=O)Nc2ccc(OC)cc2)cc1 [T6053460, COC1=CC=C(CC(=O)NC2=CC=C(OC)C=C2)C=C1] | 6.46 |
| c1csc(-c2csc3nc(CN4CCOCC4)nc(NCC4CCCO4)c23)c1 (stereo not drawn) [T6061512, C(NC1=C2C(SC=C2C2=CC=CS2)=NC(CN2CCOCC2)=N1)C1CCCO1] | 6.48 |
| CCn1c(SCC(=O)Nc2ccccc2C#N)nc2ccsc2c1=O [T6068357, CCN1C(=O)C2=C(C=CS2)N=C1SCC(=O)NC1=C(C=CC=C1)C#N] | 1.49 |
| O=C(Nc1ccccc1N1CCCC1)c1cc(S(=O)(=O)N2CCOCC2)ccc1Cl [T6137813, ClC1=C(C=C(C=C1)S(=O)(=O)N1CCOCC1)C(=O)NC1=C(C=CC=C1)N1CCCC1] | 5.04 |
| C=CCOC(=O)C1=C(C)NC(=S)NC1c1ccc(C(C)C)cc1 (stereo not drawn) [T6203208, CC(C)C1=CC=C(C=C1)C1NC(=S)NC(C)=C1C(=O)OCC=C] | 4.37 |

Same assay, conditions: Human immunodeficiency virus 1, read-out: IC50s during a 6-month period

| SMILES | IC50 [µM] |
| --- | --- |
| Cc1nnc(C(=O)NC(C)(C)c2nc(C(=O)NCc3ccc(F)cc3)c(O)c(=O)n2C)o1 [Raltegravir, reference compound] | 0.0021 to 0.0079 |

Same assay, conditions: read-out: IC50 (in µM), viral integration assay; Table S3, PM1-mCat1, dose-response hit profiling

| SMILES | IC50 [µM] |
| --- | --- |
| CCNC(=O)COC(=O)c1c(C)c(-c2cccc(Cl)c2)nc2ccccc12 [T0516-3343, CCNC(=O)COC(=O)C1=C2C=CC=CC2=NC(=C1C)C1=CC(Cl)=CC=C1] | 6.07 |
